Experimental data reported in patent US20230278966A1, “TRIAZOLONE COMPOUNDS FOR CONTROLLING INVERTEBRATE PESTS” (FMC Corporation, priority 2020, published 2023).

Test system: Root Knot Nematodes
Experiment: Nematicide assay: control of Root Knot Nematode galling on host plant roots
Type: in vivo
Conditions: drip application, 4-day-old host plant, assessed after 8 days; for pest or weed control at 500 ppm / pest or weed control at 100 ppm: 192 h, read-out: control efficacy (decrease of nematode gall formation on roots compared to the inoculated control)
Procedure: Test compounds were formulated using a solution containing 25% acetone and 75% water. The formulated compounds were applied in 330 μl of liquid through a drip applicator that was positioned above the top of each test unit. Test compounds were applied at 500 ppm and 100 ppm and each test was replicated three times. For evaluating control of Root Knot Nematodes the test unit consisted of a small open container with a 4-day-old host plant inside. The formulated compounds were dripped into the container and the nematodes were applied following the compound's application. The test units were held for 8 days in a growth chamber at 29.4° C. or 85 F. Root invasion by the nematodes was then visually assessed based on presence or absence of galls on the roots.

| Compound | pest or weed control at 500 ppm (500 ppm) [%] | control efficacy (decrease of nematode gall formation on roots compared to the inoculated control) (500 ppm) [%] | further results |
| --- | --- | --- | --- |
| O=C(NCCn1nc(C(F)(F)F)n(CC(F)(F)F)c1=O)c1ccccc1C(F)(F)F [Compound 1] | 100 |  |  |
| O=C(NCCn1nc(C(F)(F)F)n(C2CC2)c1=O)c1ccccc1C(F)(F)F [Compound 2] | 100 |  |  |
| CC(C)n1c(C(F)F)nn(CCNC(=O)c2ccccc2C(F)(F)F)c1=O [Compound 9] | 100 |  |  |
| CC(C)(C)n1c(C(F)(F)F)nn(CCNC(=O)c2ccccc2C(F)(F)F)c1=O [Compound 10, N-[2-[4-(1,1-Dimethylethyl)-4,5-dihydro-5-oxo-3-(trifluoromethyl)-1H-1,2,4-triazol-1-yl]ethyl]-2-(trifluoromethyl)benzamide] | 100 |  |  |
| CC(C)n1c(C(F)(F)F)nn(CCNC(=O)c2ccccc2C(F)(F)F)c1=O [Compound 11] | 100 |  |  |
| CCn1c(C(F)(F)F)nn(CCNC(=O)c2ccccc2C(F)(F)F)c1=O [Compound 12] | 100 |  |  |
| Cn1c(C(F)(F)F)nn(CCNC(=O)c2ccccc2C(F)(F)F)c1=O [Compound 14, N-[2-[4,5-Dihydro-4-methyl-5-oxo-3-(trifluoromethyl)-1H-1,2,4-triazol-1-yl]ethyl]-2-(trifluoromethyl)benzamide] | 100 |  |  |
| O=C(NCCn1nc(C(F)(F)F)n(CC(F)(F)F)c1=O)c1ccccc1Cl [Compound 30] | 100 |  |  |
| CC(C)n1c(C(F)(F)F)nn(CCNC(=O)c2ccccc2Cl)c1=O [Compound 31] | 100 |  |  |
| O=C(NCCn1nc(C(F)(F)F)n(CC2CC2)c1=O)c1ccccc1C(F)(F)F [Compound 32, N-[2-[4-(Cyclopropylmethyl)-4,5-dihydro-5-oxo-3-(trifluoromethyl)-1H-1,2,4-triazol-1-yl]ethyl]-2-(trifluoromethyl)benzamide] | 100 |  |  |
| CC(C)(C)n1c(C(F)(F)F)nn(CCNC(=O)c2ccccc2Cl)c1=O [Compound 38, 2-Chloro-N-[2-[4-(1,1-dimethylethyl)-4,5-dihydro-5-oxo-3-(trifluoromethyl)-1H-1,2,4-triazol-1-yl]ethyl]benzamide] | 100 |  |  |
| CC1(n2c(C(F)(F)F)nn(CCNC(=O)c3ccccc3C(F)(F)F)c2=O)CC1 [Compound 45] | 100 |  |  |
| CC(C)(C)n1c(C(F)(F)F)nn(CCNC(=O)c2ccccc2Br)c1=O [Compound 50, 2-Bromo-N-[2-[4-(1,1-dimethylethyl)-4,5-dihydro-5-oxo-3-(trifluoromethyl)-1H-1,2,4-triazol-1-yl]ethyl]benzamide] | 100 |  |  |
| O=C(NCCn1nc(C(F)(F)F)n(C2CC2)c1=O)c1ccccc1Cl [Compound 59] | 100 |  |  |
| CC(C)(C)n1c(C(F)(F)F)nn(CCNC(=O)c2cccnc2Cl)c1=O [Compound 92, 2-Chloro-N-[2-[4-(1,1-dimethylethyl)-4,5-dihydro-5-oxo-3-(trifluoromethyl)-1H-1,2,4-triazol-1-yl]ethyl]-3-pyridinecarboxamide] | 100 |  | pest or weed control at 100 ppm (100 ppm): 100% |
| CC(C)(C)n1c(C(F)(F)F)nn(CCNC(=O)c2cccnc2C(F)(F)F)c1=O [Compound 93] | 100 |  |  |
| CC(C)(C)n1c(C(F)(F)F)nn(CCNC(=O)c2c(F)cccc2C(F)(F)F)c1=O [Compound 128] |  | 100 |  |

| Compound | pest or weed control at 500 ppm (500 ppm) [%] | control efficacy (decrease of nematode gall formation on roots compared to the inoculated control) (500 ppm) [%] | further results |
| --- | --- | --- | --- |
| CC(C)(n1c(C(F)(F)F)nn(CCNC(=O)c2ccccc2Br)c1=O)C(F)(F)F [Compound 133] |  | 100 | control efficacy (decrease of nematode gall formation on roots compared to the inoculated control) (100 ppm): 100% |
| Cc1ccccc1C(=O)NCCn1nc(C(F)(F)F)n(C(C)(C)C(F)(F)F)c1=O [Compound 135] |  | 100 |  |
| O=C(NCCn1nc(C(F)(F)F)n(C2(C(F)(F)F)CCC2)c1=O)c1ccccc1C(F)(F)F [Compound 139] |  | 100 |  |
| O=C(NCCn1nc(C(F)(F)F)n(C2(C(F)(F)F)CCC2)c1=O)c1ccccc1Br [Compound 142] |  | 100 |  |
| O=C(NCCn1nc(C(F)(F)F)n(C2CC(F)(F)C2)c1=O)c1ccccc1Br [Compound 143] |  | 100 |  |
| O=C(NCCn1nc(C(F)(F)F)n(C2CC(F)(F)C2)c1=O)c1ccccc1C(F)(F)F [Compound 145] |  | 100 | control efficacy (decrease of nematode gall formation on roots compared to the inoculated control) (100 ppm): 100% |
| O=C(NCCn1nc(C(F)(F)F)n(C2CC(F)(F)C2)c1=O)c1ccccc1Cl [Compound 148] |  | 100 | control efficacy (decrease of nematode gall formation on roots compared to the inoculated control) (100 ppm): 100% |
| O=C(NCCn1nc(C(F)(F)F)n(C2(C(F)(F)F)CCC2)c1=O)c1ccccc1Cl [Compound 149] |  | 100 |  |
| CC(C)(n1c(C(F)(F)F)nn(CCNC(=O)c2ncccc2C(F)(F)F)c1=O)C(F)(F)F [Compound 160] |  | 100 |  |
| CC(C)(n1c(C(F)(F)F)nn(CCNC(=O)c2cccnc2C(F)(F)F)c1=O)C(F)(F)F [Compound 165] |  | 100 | control efficacy (decrease of nematode gall formation on roots compared to the inoculated control) (100 ppm): 100% |
| CC(n1c(C(F)(F)F)nn(CCNC(=O)c2cccnc2Cl)c1=O)C(F)(F)F (centres unmarked) [Compound 166] |  | 100 |  |
| O=C(NCCn1nc(C(F)(F)F)n(C2(C(F)(F)F)CCC2)c1=O)c1cccnc1C(F)(F)F [Compound 169] | 100 |  |  |
| O=C(NCCn1nc(C(F)(F)F)n(C2(C(F)(F)F)CCC2)c1=O)c1cccnc1Cl [Compound 170] | 100 |  |  |
| CC(C)(n1c(C(F)(F)F)nn(CCNC(=O)c2cccnc2Cl)c1=O)C(F)(F)F [Compound 171] |  | 100 | control efficacy (decrease of nematode gall formation on roots compared to the inoculated control) (100 ppm): 100% |
| O=C(NCCn1nc(C(F)(F)F)n(C2CC(F)(F)C2)c1=O)c1cccnc1C(F)(F)F [Compound 173] | 100 |  |  |
| CC(n1c(C(F)(F)F)nn(CCNC(=O)c2cccnc2C(F)(F)F)c1=O)C(F)(F)F (centres unmarked) [Compound 175] |  | 100 |  |
| CC(C)(n1c(C(F)(F)F)nn(CCNC(=O)c2ccccc2C(F)(F)F)c1=O)C(F)(F)F [Compound 179, N-[2-[4,5-Dihydro-5-oxo-4-(2,2,2-trifluoro-1,1-dimethylethyl)-3-(trifluoromethyl)-1H-1,2,4-triazol-1-yl]ethyl]-2-(trifluoromethyl)benzamide] | 100 |  | pest or weed control at 100 ppm (100 ppm): 100% |
